Laboratory results taken from patent US20080242716A1, “Ion Channel Modulators” (priority 2004, published 2008).

System: calcium channel (e.g., L-type, N-type, etc.) currents
Test: HEK assay, whole-cell voltage clamp in transiently transfected HEK-293T/17 cells
Assay type: cell-based
Conditions: whole-cell patch clamp, steady-state concentration-response
Procedure: HEK-293T/17 cells are transiently transfected in a similar manner as described in FuGENE 6 Package Insert Version 7, April 2002, Roche Applied Science, Indianapolis, Ind. The cells are plated at 2.5×10^5 cells in 2 mL in a 6-well plate in incubator for one night and achieve a 30˜40% confluence. In a small sterile tube, add sufficient serum-free medium as diluent for FuGENE Transfection Reagent (Roche Applied Science, Indianapolis, Ind.), to a total volume of 100 μL. Add 3 μL of FuGENE 6 Reagent directly into this medium. The mixture is tapped gently to mix. 2 μg of DNA solution (0.8-2.0 μg/μL) is added to the prediluted FuGENE 6 Reagent from above. The DNA/Fugene 6 mixture is gently pipeted to mix the contents and incubated for about 15 minutes at room temperature. The complex mixture is then added to the HEK-293T/17 cells, distributing it around the well, and swirled to ensure even dispersal. The cells are returned to the incubator for 24 hrs. The transfected cells are then replated at density 2.5×10^5 in a 35 mm dish with 5 glass coverslips and grow in low serum(1%) media for 24 hrs. Coverslips with isolated cells are then transferred into chamber and calcium channel (e.g., L-type, N-type, etc.) current or other currents for counter screening are recorded from the transiently transfected HBEK-293T/17 cells. […]

Compound: Fc1ccc(Cc2nc(Cc3nc4ccccc4[nH]3)cn2-c2ccc(Cl)cc2)cc1 [Compound 2, 2-[1-(4-Chloro-phenyl)-2-(4-fluoro-benzyl)-1H-imidazol-4-ylmethyl]-1H-benzoimidazole]
- IC50: 252 nM
